Values joined by “and” are separate entries in the source; they are usually repeats but may differ in a detail not shown here. Equal values may be shown once.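 Exposure lasted 48 hours, with cells grown in 96-well plates and compounds tested at five concentrations. GI50: concentration for 50% inhibition of growth. TGI marks complete inhibition of growth.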

This is an account of results in PubChem BioAssay (NCI).

The subject of this test is MDA-MB-468 breast. In words: NCI tumour cell line growth inhibition, 48 h.
Turning to `C[C@]12CC[C@H]3[C@@H](CCC4=CC(=O)CC[C@@H]43)[C@@H]1CC[C@@H]2OC(=O)CCc1ccccc1`, the GI50 is over 61.4 µM and the TGI is over 100 µM.
On to `Cc1ccc(-c2cc(-c3ccc(C)cc3)nc(NCCNc3ccnc4cc(Cl)ccc34)n2)cc1`, for which the GI50 was 1.44 µM and the TGI was 3.06 µM.
As for `N/C(=N\N=C\c1ccc(-c2ccccc2)cc1)N[N+](=O)[O-]`, the GI50 is 0.935 µM and the TGI is over 100 µM.
With `CC(C)(C)c1ccc(OCCCCCCN2CCNCC2)cc1`, the GI50 was 2.38 µM and the TGI amounted to 6.78 µM.
With `CCN1CCC(CCOC)(CN2c3ccccc3Sc3ccc(Cl)cc32)C1` (centres undefined), the GI50 was 1.66 µM and the TGI was determined as 3.37 µM.
On to `CCC1C(c2cc(OC)c(OC)c(OC)c2)c2cc3c(cc2OC1N1CCCC1)OCO3` (centres undefined), for which the GI50 was 4.23 µM and the TGI was 25.2 µM.
In the case of `Cn1c2c(cc(S(=O)(=O)c3ccccc3)c1=O)CCc1c-2cnn1-c1ccc(Cl)cc1`, the GI50 was 2.39 µM and the TGI came to 5.65 µM.
For `C=CC(=O)Nc1cccc(C)c1Nc1cc(-c2cccnc2Cc2c(C)c(OC)cc(OC)c2C)ncn1`, the GI50 was 5.85 µM and the TGI was determined as 24.7 µM.
In the case of `Nc1ncnc2[nH]ncc12`, the GI50 is 0.219 µM and the TGI came to 2.85 µM.
Take `COc1ccc(-c2cc(-c3ccccc3)nc(SCCCC(=O)NO)n2)cc1`: the GI50 was 1.14 µM and the TGI came to 4.52 µM.
On to `C=C1CC[C@@H]2[C@](C)(COC(C)=O)[C@@H](O)CC[C@@]2(C)[C@@H]1COc1ccc2ccc(=O)oc2c1`, for which the GI50 is over 100 µM and the TGI was over 100 µM.
For `Cc1cc(NCc2cc(Nc3ccnc4cc(Cl)ccc34)ccc2F)nc(N2CCCC2)n1`, the GI50 was 1.33 µM and the TGI worked out at 3.07 µM.
As to `CC(C)CC(CC1=CCC2CC1C2(C)C)C1=C(O)C(C)(C)C(=O)C(C)(C)C1=O` (centres undefined), the GI50 is 0.268 µM and the TGI stood at 1.33 µM.
Consider `Cc1ccc(NC(=O)/C=C/c2ccccc2)c(C(N)=O)c1`, for which the GI50 was 3.17 µM and the TGI is 28.1 µM.
As to `CN(C)c1ccc2c(c1)Sc1cc(N(C)C)ccc1N2C(=O)c1ccccc1`, the GI50 was 44.7 µM and the TGI was over 100 µM.
As for `CC(CN1CCN(CCOCCO)CC1)CN1c2ccccc2Sc2ccc(Cl)cc21` (centres undefined), the GI50 was 1.69 µM and the TGI is 4.14 µM.
The matching figures for `O=c1[nH]c2ccccc2nc1-c1c[nH]c2ccccc12`: over 100 µM and over 100 µM.
Taken in the same sequence, the figures for `COc1cccc(NC(=O)c2sc3nc4c(cc3c2N)CN(Cc2ccccc2)CC4)c1` were 2.6 µM and 61.4 µM.
The matching figures for `O[C@H]1CO[C@H]2[C@@H]1OC[C@@H]2Oc1ccc(Nc2ccnc(Nc3ccc(O[C@H]4CO[C@H]5[C@@H]4OC[C@@H]5O)c(Cl)c3)n2)cc1Cl`: 1.18 µM and 3.81 µM.
Take `C=CC(=O)N(C)[C@H]1C[C@H]2OC(C)(C1OC)n1c3ccccc3c3c4c(c5c6ccccc6n2c5c31)C(=O)NC4` (some centres undefined): the GI50 is 0.0571 µM and the TGI was determined as 0.235 µM.
The matching figures for `CCN=C1C=CC(=C(c2ccc(N)cc2)c2ccc(N(CC)CC)c(C)c2)C=C1`: 0.193 µM and 0.718 µM.
The matching figures for `O=C(c1ccccc1)C(CN1CCOCC1)c1ccccc1` (centres undefined): 0.382 µM and 1.59 µM.
Regarding `CCCn1cnc2c(c1=N)C(c1ccc(Cl)cc1)c1sc3c(C)cccc3c1O2` (centres undefined), the GI50 was 0.361 µM and the TGI stood at 3.9 µM.
The matching figures for `O=C1c2c(c3c4ccccc4[nH]c3c3ccc4ccccc4c23)C(=O)N1CCN1CCCCC1`: 0.38 µM and 2.49 µM.
The matching figures for `O=[N+]([O-])c1cccc(-c2nc3sccn3c2-c2ccnc(NCCCNS(=O)(=O)c3cccc(F)c3)n2)c1`: 0.829 µM and 6.1 µM.
For the compound `Clc1cc(Cl)c(OCC#CI)cc1Cl`, the GI50 was 2.36 µM and the TGI turned out to be 7.29 µM.
The matching figures for `N#C/C(=C\c1c(-c2ccccc2)[nH]c2ccccc12)S(=O)(=O)c1ccccc1`: 1.86 µM and over 28.3 µM.
The matching figures for `CN1CCN(Cc2ccc(NC(=O)c3cncc(C#Cc4cnc(N)c5ccncc45)c3)cc2C(F)(F)F)CC1`: 1.26 µM and 8.24 µM.
The matching figures for `Cc1cc2c3ccc(C)[n+](C)c3ccc2n1C`: 1.12 µM and 8.5 µM.
Regarding `CCCn1c(C)nc2c1C(=O)c1ccccc1C2=O`, the GI50 is 18.7 µM and the TGI was found to be 56.7 µM.
Taken in the same sequence, the figures for `CC1=C(CCC(C)N(C)Cc2ccc(OCCCN3CCCC3)cc2)C(C)(C)CCC1` (centres undefined) were 2.15 µM and 5.75 µM.
As for `Cc1cc(N/N=C/c2nc(-c3ccc(Br)cc3)oc2C)c2cc(Cl)ccc2n1`, the GI50 was over 100 µM and the TGI is over 100 µM.
Take `COc1ccc(C2CC(c3cc(OC)c(OC)c(OC)c3)=NN2C(C)=O)cc1OCC(=O)Nc1nc2ccc(C(F)(F)F)cc2s1` (centres undefined): the GI50 was 6.12 µM and the TGI came to 29.1 µM.
The matching figures for `O=C(/C(=C/c1ccccc1)CN1CCCCC1)c1ccccc1`: 0.531 µM and 1.95 µM.
Take `CN(C)CCCN1c2ccccc2CCc2ccc(Cl)cc21`: the GI50 was 1.42 µM and the TGI was determined as 3.23 µM.
As to `O=S(=O)(NCCNC/C=C/c1ccc(Br)cc1)c1cccc2cnccc12`, the GI50 was 3.3 µM and 5.06 µM; the TGI is 13.8 µM and 18.5 µM.
Turning to `CN(C)c1ccc(/C=C\c2cccc[n+]2C)cc1`, the GI50 is 0.988 µM and the TGI amounted to 5.76 µM.
Consider `CS(=O)(=O)c1ccc(C(=O)Nc2ccc(Cl)c(-c3ccccn3)c2)c(Cl)c1`, for which the GI50 was 20.8 µM and 2.16 µM; the TGI is > 86 µM and 9.69 µM.
For `CCN(C(=O)N1CCN(c2cc3c(cc2F)c(=O)c(C(=O)O)cn3C2CC2)CC1)c1nc(-c2ccc(C)cc2)cs1`, the GI50 was 1.13 µM and the TGI came to 7.4 µM.
Taken in the same sequence, the figures for `C=CC(=O)N1CCN(c2ccc3cccc(NC(=O)c4cnc(C)cn4)c3n2)CC1` were 1.83 µM and 7.45 µM.
In the case of `O=C(C1CCCCC1)[C@@H]1[C@]2(C(=O)NC3CCCCC32)[C@@H]2CCCN2[C@@]12C(=O)NC1CCC(Cl)CC12` (some centres undefined), the GI50 is 121 µM and the TGI was found to be 277 µM.
Taken in the same sequence, the figures for `COc1ccc(-c2n[nH]nc2-c2cc(OC)c3c(c2OC)OCO3)cc1` were 0.386 µM and 1.49 µM.
Taken in the same sequence, the figures for `C[C@]12CCC3[C@@H](CC[C@@H]4c5nonc5CC[C@]34C)C1CCC(=O)N2` (some centres undefined) were 60.2 µM and over 100 µM.
Taken in the same sequence, the figures for `COC(=O)C(Cc1ccccc1)NC(=O)NC(=O)NC(=O)CI` (centres undefined) were 4.1 µM and 15.1 µM.
For `Cc1ccc(C(=O)Nc2ccc(CN3CCN(C)CC3)c(C(F)(F)F)c2)cc1C#Cc1cnc2cccnn12`, the GI50 was 0.461 µM and 1.5 µM; the TGI was 1.72 µM and 4.22 µM.
With `Cc1ccc(C(=O)Nc2cccc(C(F)(F)F)c2)cc1Nc1nc(-c2cccnc2)nc2c1cnn2C`, the GI50 was 3.02 µM and 1.78 µM; the TGI is 8.4 µM and 4.48 µM.
Turning to `C/C(=N\Nc1ccc2ccccc2n1)c1ccccn1`, the GI50 was 0.0962 µM and the TGI was found to be 0.705 µM.
